Data taken from ChEMBL document CHEMBL3507680, “University of Dundee, Gates Library screen for HepG2 cell viability”.

assay: Human HepG2 cell viability assay in 384 well format; format: toxicity, cell-based; design: dose 125 nL, time 70.5 hour; concentration not given beside the values; settings: HepG2 cells, read-out: Inhibition

Row | Compound | cytotoxicity at 70.5 h
1 | CCc1nc(CNC(=O)C2CCC(=O)N(Cc3ccccc3F)C2)no1 (centres undefined) | -8.67%
2 | CC(C)Cc1cc(C(=O)NCC2CCCN(c3ccccn3)C2)on1 (centres undefined) | 9.21%
3 | CSCC[C@@H](CO)n1ccnc1-c1ccc(C)o1 | 0.0887%
4 | O=C1CCC(C(=O)N2CCOC(Cc3ccc(F)cc3)C2)=NN1 (centres undefined) | -11.8%
5 | Cc1nn(C)c2nc(N3CCCCC3c3cccnc3)sc12 (centres undefined) | -4.09%
6 | CN(CCO)Cc1nnc(C2CCN(C[C@H]3[C@@H]4CNC[C@@H]43)CC2)n1C | 9.78%
7 | CCOC(=O)CCCNc1nc(C(C)(C)C)nc2c1cnn2C | -3.02%
8 | COc1ccc(N2CCN(Cc3nc(CSC)no3)CC2=O)cc1 | 4.47%
9 | CCn1ncnc1CN1CCC(CNC(=O)c2cccnc2O)C1 (centres undefined) | -4.94%
10 | Cc1cc(N(C)Cc2c(C)noc2C)n2nc(C)c(C)c2n1 | 3.35%
11 | Cc1ccc(N2CCC(c3[nH]ncc3Cc3ccccc3)CC2)nn1 | -10%
12 | O=C(C(c1ccc(F)cc1)N1CCCCC1)N1CCn2cncc2C1 (centres undefined) | -1.97%
13 | CCc1cc(NCCN2CCNC2=O)n2nc(C)c(C)c2n1 | -11.4%
14 | Cc1cc2n(n1)CCN(c1nc(N(C)C)nc3c1CCNC3)C2 | 14.4%
15 | CCCc1cc(N2CCC(N[C@H]3CC[C@H](O)CC3)CC2)nc(C)n1 | -4.54%
16 | CCN(CC)C(=O)[C@@H]1C[C@H](NC(=O)c2ccn(C(C)(C)C)c2)CN1C | -1.68%
17 | OCC1CCCCN1CCn1ccnc1-c1nc2ccccc2[nH]1 (centres undefined) | -2.11%
18 | CCc1ccccc1OCCN1CCC(NS(C)(=O)=O)CC1 | 3.87%
19 | CSCCc1nc(-c2ccc3c(c2)OCO3)n(C)n1 | -4.21%
20 | Cc1ccc2[nH]c(CNC(=O)C3CC4(CCNCC4)CN3C)nc2c1C (centres undefined) | 50.4%
21 | OC[C@@H]1CCCN1Cc1cn(C2CCN(C3CCCC3)CC2)nn1 | -4.14%
22 | Cn1cccc1-c1cc(C(=O)N2CCCCC2c2ccc(F)cc2)[nH]n1 (centres undefined) | -3.93%

Row | Compound | cytotoxicity at 70.5 h
23 | CC(=O)N[C@@H]1CN(C(=O)c2ccoc2)C[C@H]1c1ccc(C)cc1 | -13.3%
24 | CS(=O)(=O)NC1CCN(CCOCc2ccccc2)CC1 | -6.45%
25 | Cc1ccc(-c2ncc(C(=O)N3CCN4CCCCC4C3)c(O)n2)cc1 (centres undefined) | -4.08%
26 | O=C(NCc1nc(C2CCCCC2)no1)C1CC(=O)N(C2CC2)C1 (centres undefined) | 5.86%
27 | Cc1ccc(NC2(C(=O)NC(C)c3ncn[nH]3)CCCC2)cc1 (centres undefined) | 6.6%
28 | Cc1ccccc1CC(=O)N1C[C@H]2CC[C@@H]1CN(Cc1cccnc1)C2 | -4.12%
29 | CCc1ncc(CN2CCC(CCc3ccccc3)CC2)cn1 | 20.8%
30 | CCOc1ccc(CN(CCOC)C(=O)c2ccncc2Cl)cc1 | -3.6%
31 | Cc1nc(N2CCCC2C(=O)NCc2ccsc2)nc2ccccc12 (centres undefined) | -6.09%
32 | Cn1c(CN2CC[C@](C)(O)C(C)(C)C2)cc2ccccc21 | -5.32%
33 | O=C(c1c[nH]cn1)N1CCC(n2cc(-c3ccsc3)nn2)CC1 | 18%
34 | CCCc1nc(CN(CC)Cc2ccc(S(C)(=O)=O)cc2)no1 | 10.1%
35 | Cn1c(-c2ccccc2Cl)nc2cc(C(=O)NCCS(C)(=O)=O)cnc21 | -7.15%
36 | CN(CCC(O)c1ccccc1)c1cc(C2CC2)ncn1 (centres undefined) | -6.59%
37 | CO[C@H]1CN(C(C)C)C[C@@H]1NC(=O)Nc1ccc(C(F)(F)F)cc1 | -5.18%
38 | CCNC(=O)C1CCN(Cc2ccc(C(=O)Nc3cnns3)cc2)C1 (centres undefined) | 1.67%
39 | Cc1ccccc1C(CNc1ncnc2c1CCNC2)N(C)C (centres undefined) | -7.27%
40 | Cc1ccnc(N2CCN(C3CCS(=O)(=O)C3)CC2)n1 (centres undefined) | -13.6%
41 | COCCCN(Cc1cnc(C2CCCCC2)nc1)C1CCN(C)CC1 | -16.3%
42 | CCCN1C[C@H]2CC[C@@H]1CN(C(=O)Cc1c(C)nc(CC)[nH]c1=O)C2 | -8.7%
43 | CN(C)C1CCN(C(=O)c2cccc(S(=O)(=O)NCC3(C)COC3)c2)C1 (centres undefined) | -9.11%
44 | Cc1cc(C(=O)N(C)Cc2ccoc2)c(NC(=O)C(C)(C)C)s1 | -3.77%

Row | Compound | cytotoxicity at 70.5 h
45 | CCc1nnc(CNC(=O)CCC2CCCN(C)C2)s1 (centres undefined) | -0.522%
46 | Cc1nc(N(C)C)ncc1C(=O)N[C@H]1Cc2ccccc2[C@@H]1N | -5.1%
47 | CCCn1ccnc1-c1nccn1CCC(N)=O | -7.75%
48 | CCC[C@@H]1CN(C(=O)c2cc(-c3cccs3)n(C)n2)C[C@H]1N(C)C | -8.43%
49 | COc1nc2c(cc1C(=O)NCc1noc(-c3ccco3)n1)CCC2 | -7.17%
50 | CCN(Cc1noc(C2CCC2)n1)C(=O)CCc1cc2n(n1)CCNC2 | -7.31%
51 | Cc1nc(N2C[C@@H](CN3CCCN(C)CC3)[C@@H](CO)C2)c2ccsc2n1 | 11.6%
52 | CCN1CCC(CC(=O)NCCc2nc(N)cc(O)n2)CC1 | -2.8%
53 | COc1ccc(OC)c(-c2nc(CN(C)Cc3noc(C)n3)c(C)o2)c1 | -21.2%
54 | CN1CCC(CNC(=O)CCSc2ccc3c(c2)OCCO3)C1 (centres undefined) | -2.01%
55 | COc1cccc(CNC(=O)N2CCN3CCNC(=O)C3C2)c1 (centres undefined) | -10.4%
56 | CCOc1ncccc1-c1cc2c(cc1C(N)=O)OCO2 | -3.42%
57 | COc1ccc([C@@H](C)n2ccnc2-c2cc3n(n2)CCCNC3)cc1 | 18.8%
58 | COCCCN1CC2(CCN(C(=O)c3ccc(=O)n(C)c3)CC2)CC1=O | -9.99%
59 | CN(Cc1cccnc1)c1nc(-c2ccccn2)nc2c1CCNCC2 | -5.18%
60 | CC(C)c1nnsc1CNC(=O)C1CCN(C(=O)C2CC2)CC1 | 2.6%
61 | CCN1CCCC1CN(Cc1cc[nH]n1)CC1CCN(CCOC)CC1 (centres undefined) | 6.24%
62 | N#Cc1ccccc1CN1CCC2(CC1)CC(c1ccccc1)C(=O)N2 (centres undefined) | 14%
63 | CCOC(=O)C1(Cc2cccc(Cl)c2)CCCN(Cc2ncc[nH]2)C1 (centres undefined) | 0.345%
64 | Cc1cc(CC(C)NC2CCSCC2)[nH]n1 (centres undefined) | -5.1%
65 | COc1ccc(C(=O)NC2CC2)c(OC2CCN(CCCSC)CC2)c1 | -1.03%
66 | O=C(O)[C@H]1C[C@H](C(=O)NCc2ccncc2)CN(CCC(F)(F)F)C1 | -6.65%

Row | Compound | cytotoxicity at 70.5 h
67 | N[C@@H]1c2ccccc2C2(CCN(C(=O)c3cncc(Cl)c3)CC2)[C@H]1O | 19%
68 | Cc1ccc(CN(C)C(C(=O)O)c2ccc3c(c2)OCO3)o1 (centres undefined) | -7.76%
69 | COc1ccc(N2CCN(C(=O)Cn3nccc3C)CC2(C)C)cc1 | -0.615%
70 | O=C(C1CCCN(C2CCOCC2)C1)N1Cc2ccccc2C1 (centres undefined) | 13%
71 | Cn1c(=O)oc2ccc(NC(=O)N3CCSCC3)cc21 | -18.1%
72 | COc1ccc2c(C)c(C(=O)NC3CCN(S(C)(=O)=O)CC3)oc2c1 | -2.46%
73 | CCC[C@H]1CN(c2nccc(OC)n2)C[C@@H]1NC(=O)C1CCOCC1 | -6.8%
74 | O[C@H]1[C@H](NCCc2cnccn2)c2ccccc2C12CCNCC2 | -3.75%
75 | CCCC1(CO)CCCN(Cc2nccs2)C1 (centres undefined) | -4.2%
76 | Cc1noc2ncnc(N3CCC(O)(Cn4ccnc4)CC3)c12 | 4.45%
77 | Cn1cc(C(=O)N2CCC(c3ncc[nH]3)CC2)cn1 | -17.5%
78 | COCC(=O)N1CCN(C(=O)Cc2cccs2)[C@H]2CS(=O)(=O)C[C@H]21 | -5.46%
79 | CCN(CCn1cccn1)Cc1nc(-c2ccc(C)o2)oc1C | 13%
80 | Cc1cc(CC(C)Nc2nc(C3CCCC3)nc3c2cnn3C)[nH]n1 (centres undefined) | -13%
81 | Cc1cc(CNC(=O)C(c2ccc(F)cc2)N(C)C)n[nH]1 (centres undefined) | 7.79%
82 | CN(C)c1ncc(CNC2CC(=O)N(CCc3cccc(Cl)c3)C2)s1 (centres undefined) | -4.44%
83 | Cc1nc(-c2ccncc2)ncc1C(C)NC(=O)Cn1ccccc1=O (centres undefined) | 9.51%
84 | Cc1nn(C)c2nc(N3CCNC(=O)C3C(C)C)sc12 (centres undefined) | 10.4%
85 | CNC(=O)c1ccc(-n2c(COCC(=O)O)nc3c(C)cccc32)o1 | -1.45%
86 | COc1cccc(C2CCCN2C(=O)c2cc3c(nc2OC)CCC3)c1 (centres undefined) | -2.74%
87 | CCOC(=O)N1C[C@H]2CC[C@@H]1CN(Cc1ccccc1)C2 | -6.47%
88 | CC(=O)N[C@@H]1CN(C2CCN(c3ccccc3F)CC2)C[C@H]1C(C)C | -10.5%

Row | Compound | cytotoxicity at 70.5 h
89 | CC(C)(C)n1cc(C2=CCN(CCN3CCCCCC3)CC2)cn1 | -4.69%
90 | C[C@@H]1CN(Cc2cc3ccccc3n2C)CC[C@@]1(O)C1CC1 | -3.91%
91 | O=C(c1ccc2c(c1)OCO2)N1C[C@@H](CN2CCCCC2)[C@@H](CO)C1 | -0.201%
92 | CN1CCN([C@@H]2CCN(Cc3ccc4cc(F)ccc4n3)C[C@H]2O)CC1 | -1.96%
93 | CCCn1ccnc1-c1nccn1CCN(C)C | -2.58%
94 | O=C(O)[C@@H]1CN(C(=O)c2ccc(Cl)cc2)C[C@H]1c1cccc(F)c1 | -12.9%
95 | CN(C)Cc1nnc(C2CCCN(c3nccc4ccccc34)C2)n1C (centres undefined) | -12.2%
96 | O=C1CC[C@H]2CN(c3ncc(F)cn3)CC[C@H]2N1CCc1ccccn1 | -5.32%
97 | Cc1c(CN2CCC(C(=O)O)(n3cccn3)CC2)oc2ccccc12 | -2.29%
98 | Cc1cc(C)nc(N(C)CCN(C)C2CCCC2)n1 | -6.11%
99 | CC(C)Cc1cc(CNc2nc(-c3cccnc3)nc3c2CNC3)no1 | -15.7%
100 | Cc1nc(O)cc(C2CCCN(C(=O)c3cccc(N(C)C)c3)C2)n1 (centres undefined) | 5.24%
101 | CCOc1ccc(CN(CCOC)c2nc(C)nc3oc(C)nc23)cc1 | -12.6%
102 | CCc1cn[nH]c1C1CCCN(C(=O)c2cc(C(C)C)on2)C1 (centres undefined) | -2.01%
103 | CN(C)CCN1CC(C(=O)NCc2cccc(-n3cccn3)c2)CC1=O (centres undefined) | -0.603%
104 | COc1ccccc1CN1C(=O)O[C@@H]2CN(Cc3cccc(C)n3)C[C@@H]21 | 20.9%
105 | Cc1ccncc1-n1cc(CCO)cn1 | -5.86%
106 | O=C1CCCN1c1cccc(N2CCC(NCCc3cscn3)CC2)c1 | -4.03%
107 | CN(C)C(=O)c1ccc2c(c1)N(C)C(CC(=O)NCCOCCO)CO2 (centres undefined) | 12.2%
108 | O=C(c1cccc(C2CCNC2)c1)N1CCC(c2ccncc2)CC1 (centres undefined) | -18.3%
109 | Cc1ccc(C(=O)N2CC(Oc3ccccc3C)C2)s1 | -12.1%
